This passage reports logP and pest or weed control results from patent US8334235B2, “Thiadiazolyloxyphenylamidines and use thereof as fungicides” (Bayer Cropscience AG, priority 2008, dated 2012).

Data set [1] in a line: log P (pH 2.3). It is filed as physicochemical.
In data set [2] the test system is Sphaerotheca fuliginea. Put plainly: Sphaerotheca test (cucumber)/protective. To be noted: Podosphaera fuliginea, 168 h, 500 ppm active substance, protective, evaluation 7 days after inoculation, read-out: degree of effectiveness. Format: in vivo. On the procedure: • Solvent: 49 parts by weight of N,N-dimethylformamide • Emulsifier: 1 part by weight of alkylaryl polyglycol ether (polyoxyethylene (16) tristearylphenyl ether) To prepare a suitable active substance composition, 1 part by weight of active substance is mixed with the given amounts of solvents and emulsifier and the concentrate is diluted to the desired concentration using water. For the testing of protective effectiveness, young cucumber plants are sprayed with the active substance composition in the application rate given. One day after treatment, the plants are inoculated with a suspension of spores of Sphaerotheca fuliginea. The plants are then placed in a greenhouse at 70% relative humidity and a temperature of 23° C. Evaluation is carried out 7 days after the inoculation. In this connection, 0% means a degree of effectiveness corresponding to that of the control, while a degree of effectiveness of 100% means that no infestation is observed.

In data set [3] the test system is Puccinia triticina. Nature of the data set: Puccinia triticina test (wheat)/protective. Format: in vivo. The note with it: 192 h, 500 ppm active substance, protective, evaluation 8 days after inoculation, read-out: degree of effectiveness. Here is the method: (§1) • Solvent: 50 parts by weight of N,N-dimethylacetamide • Emulsifier: 1 part by weight of alkylaryl polyglycol ether (polyoxyethylene (16) tristearylphenyl ether)
(§2) To prepare a suitable active substance composition, 1 part by weight of active substance is mixed with the given amounts of solvent and emulsifier and the concentrate is diluted to the desired concentration using water.
For the testing of protective effectiveness, young plants are sprayed with the active substance composition in the application rate given. After the spray coating has been dried on, the plants are sprayed with a suspension of spores of Puccinia triticina. The plants remain in an incubation chamber at 20° C. and 100% relative humidity for 48 hours. The plants are placed in a greenhouse at a temperature of approximately 20° C. and a relative humidity of approximately 80%.
(§3) Evaluation is carried out 8 days after the inoculation. In this connection, 0% means a degree of effectiveness corresponding to that of the control, while a degree of effectiveness of 100% means that no infestation is observed.

The test system of data set [4] is Puccinia triticina. Nature of the data set: Puccinia triticina test (wheat)/curative. It is filed as in vivo. The note with it: 192 h, 500 ppm active substance, curative, evaluation 8 days after inoculation, read-out: degree of effectiveness. Here is the method: as §1, §2
For the testing of curative effectiveness, young plants are sprayed with a suspension of spores of Puccinia triticina. The plants remain in an incubation chamber at 20° C. and 100% relative humidity for 48 hours and are then sprayed with the active substance composition in the application rate given. The plants are placed in a greenhouse at a temperature of approximately 20° C. and a relative humidity of approximately 80%.
as §3

For data set [5], the system named is Alternaria solani. Nature of the data set: Alternaria test (tomato)/protective. It is filed as in vivo. To be noted: 72 h, 100 ppm active substance, protective, evaluation 3 days after inoculation, read-out: degree of effectiveness. Here is the method:
(§4) • Solvents: 24.5 parts by weight of acetone • 24.5 parts by weight of dimethylacetamide • Emulsifier: 1 part by weight of alkylaryl polyglycol ether (polyoxyethylene (16) tristearylphenyl ether)
To prepare a suitable active substance composition, 1 part by weight of substance is mixed with the given amounts of solvents and emulsifier and the concentrate is diluted to the desired concentration using water.
For the testing of protective effectiveness, young plants are sprayed with the active substance composition in the application rate given. After the spray coating has been dried on, the plants are inoculated with an aqueous suspension of spores of Alternaria solani. The plants are then placed in an incubation chamber at approximately 20° C. and 100% relative humidity.
Evaluation is carried out 3 days after the inoculation. In this connection, 0% means a degree of effectiveness corresponding to that of the control, while a degree of effectiveness of 100% means that no infestation is observed.

Data set [6] relates to bean rust pathogen Uromyces appendiculatus. Put plainly: Uromyces test (beans)/protective. It is filed as in vivo. To be noted: 240 h, 100 ppm active substance, protective, evaluation 10 days after inoculation, read-out: degree of effectiveness. Here is the method:
as §4
To prepare a suitable active substance composition, 1 part by weight of active substance is mixed with the given amounts of solvents and emulsifier and the concentrate is diluted to the desired concentration using water.
For the testing of protective effectiveness, young plants are sprayed with the active substance composition in the application rate given. After the spray coating has been dried on, the plants are inoculated with an aqueous suspension of the spores of the bean rust pathogen Uromyces appendiculatus and then remain in an incubation chamber at approximately 20° C. and 100% relative humidity for 1 day.
The plants are then placed in a greenhouse at approximately 21° C. and a relative humidity of approximately 90%.
Evaluation is carried out 10 days after the inoculation. In this connection, 0% means a degree of effectiveness corresponding to that of the control, while a degree of effectiveness of 100% means that no infestation is observed.

The logP is the decadic logarithm of the partition coefficient of the neutral form, usually between octanol and water. Compound `Cc1cc(N)c(Cl)cc1Oc1nc(CCc2ccc(Cl)cc2)ns1` [2-Chloro-4-({3-[2-(4-chlorophenyl)ethyl]-1,2,4-thiadiazol-5-yl}oxy)-5-methylaniline] returned a logP in data set [1] of 4.5.

`Cc1cc(N)c(Cl)cc1Oc1nc(C2(Cl)CC2)ns1` [2-Chloro-4-{[3-(1-chlorocyclopropyl)-1,2,4-thiadiazol-5-yl]oxy}-5-methylaniline] came in with a logP in data set [1] of 3.5. Still for that read-out and setting: as for `Cc1ccc(S(=O)(=O)c2nc(C3(Cl)CC3)ns2)cc1` [3-(1-Chlorocyclopropyl)-5-{(4-methylphenyl)sulphonyl}-1,2,4-thiadiazole], the figure is 3.67; as for `Cc1ccc(S(=O)(=O)c2nc(CCc3ccc(Cl)cc3)ns2)cc1` [3-[2-(4-Chlorophenyl)ethyl]-5-[(4-methylphenyl)sulphonyl]-1,2,4-thiadiazole], 4.62. The same measure, in the same setting: next, `O=c1oc(CCc2ccc(Cl)cc2)ns1` [5-[2-(4-Chlorophenyl)ethyl]-1,3,4-oxathiazol-2-one]: 3.36. In the case of `CCN(C)C=Nc1cc(C)c(Oc2nc(C3(Cl)CC3)ns2)cc1Cl` [Compound 3, N′-(2-chloro-4-{[3-(1-chlorocyclopropyl)-1,2,4-thiadiazol-5-yl]oxy}-5-methylphenyl)-N-ethyl-N-methylimidoformamide], the pest or weed control at 500 ppm in data set [2], in data set [3] and in data set [4] was ≥ 70% throughout. The compound further showed a logP in data set [1] of 1.62. With `Cc1cc(/N=C\N2CCCCC2)c(Cl)cc1Oc1nc(CCc2ccc(Cl)cc2)ns1` [Compound 10, 2-chloro-4-({3-[2-(4-chlorophenyl)ethyl]-1,2,4-thiadiazol-5-yl}oxy)-5-methyl-N-[(Z)-piperidin-1-ylmethylidene]aniline], the logP in data set [1] was 2.64. Consider `CCN(C)/C=N/c1cc(C)c(Oc2nc(C(C)(C)CCl)ns2)cc1Cl` [Compound 39, N′-(2-chloro-4-{[3-(1-chloro-2-methylpropan-2-yl)-1,2,4-thiadiazol-5-yl]oxy}-5-methylphenyl)-N-ethyl-N-methylimidoformamide], for which the pest or weed control at 100 ppm in data set [5] and in data set [6] was ≥ 70% each time. The pest or weed control at 500 ppm in data set [2], in data set [3] and in data set [4] was ≥ 70% each time.
